The test system of the experiment is db/db mice. The experiment can be described thus: Evaluation of anti-diabetic effects in db/db mice. The settings on record: P < 0.05, metformin 100 mg/kg/d. In kind it is in vivo. The protocol: Eight-week-old male db/db mice (30–35 g) were used, and the details were described in Supplemental Data. The mice were randomly divided into eight groups. Mice were orally administered with metformin (100 mg/kg/d, n = 6), berberine (50 mg/kg/d, n = 6), glycyrrhizic acid (80 mg/kg/d, n = 6), berberine (50 mg/kg/d) combined with low-dose of glycyrrhizic acid (50 mg/kg/d, n = 6), berberine (50 mg/kg/d) combined with high-dose of glycyrrhizic acid (80 mg/kg/d, n = 6), berberine (50 mg/kg/d) combined with Gan-Cao (2.2 g/kg/d, n = 7), and GQD (18.2 g/kg/d, n = 7) for 4 weeks. For the control group, the […] were administered with an equal volume of water. On day 28, after fasted for 12 h, retro-orbital blood samples were collected, stand for 1 h, and then centrifuged (6,000 rpm, 4°C) for 20 min to obtain serum. Biochemical indicators such as blood glucose and insulin were determined on a Mindray BS-800 analyzer (Mindray Bio-Medical Electronics Co.).
Herbal materials and extracts.
The four component herbs, Puerariae Lobatae Radix (Ge-Gen, GG), Scutellariae Radix (Huang-Qin, HQ), Coptidis Rhizoma (Huang-Lian, HL), and Glycyrrhizae Radix et Rhizoma Praeparata cum Melle (Gan-Cao, GC) were purchased from Tianheng Pharmacy. GQD was prepared by decocting the four component herbs […]
of water for three times (1.5 h, 1.5 h, 0.5 h) to obtain the extracts, followed by a pre-extraction of Ge-Gen using 200 mL of water for 0.5 h. The decoctions were combined, filtered, and concentrated in vacuum at 50 °C. GQD-GC was prepared using the same procedure, except that Gan-Cao was removed from the formula. Final concentration of the GQD-GC extract was equivalent to 1.0 g of the crude drugs per mL. For single herb extracts, the herbs were decocted in 8-fold volume of water for three times (1.5 h, 1.5 h, 0.5 h) and then concentrated. […]
For anti-diabetic study, Eight-week-old male db/db mice (30–35 g) were purchased from Card Vince Laboratory animal Co., Ltd. The mice were bred in a cage (318 × 202 × 135 mm) in a breeding room at 25 °C, 60 ± 5% humidity, and a 12-h dark-light […]
On day 28, db/db mice were fasted for 12 h, and blood was collected and centrifuged to obtain serum for insulin and biochemical tests. After that, 150 µL of plasma was prepared by adding 150 µL of internal standard solution, 150 µL of methanol, and 300 µL of acetonitrile. The processing method was consistent with sample preparation for […]
3.1. Optimization of chromatographic separation
Different solvents (67% methanol, and 100% methanol) were compared to effectively extract both hydrophilic and hydrophobic compounds of GQD. […]
better extraction recovery for most compounds. […]

Structures are written as SMILES.

Take `CN(C)C(=N)N=C(N)N` [Metformin, metformin, reference compound]: the 4-week body weight result is on record as “significant decrease”.

The values above are taken from article PMC6018403 (Frontiers in Pharmacology, 2018).
